Source: patent US10913711B2, “Potent and selective inhibitors of monoamine transporters; method of making; and use thereof” (priority 2013, dated 2021)

target: human DAT A480T mutant (Homo sapiens (Human), UniProt Q01959, A480T); assay: [3H]DA uptake inhibition in intact COS7 cells, hDAT A480T; conditions: read-out: hDAT A480T Ki [S.E. interval], [3H]DA uptake inhibition potency
Sequence (Q01959 whole entry A480T): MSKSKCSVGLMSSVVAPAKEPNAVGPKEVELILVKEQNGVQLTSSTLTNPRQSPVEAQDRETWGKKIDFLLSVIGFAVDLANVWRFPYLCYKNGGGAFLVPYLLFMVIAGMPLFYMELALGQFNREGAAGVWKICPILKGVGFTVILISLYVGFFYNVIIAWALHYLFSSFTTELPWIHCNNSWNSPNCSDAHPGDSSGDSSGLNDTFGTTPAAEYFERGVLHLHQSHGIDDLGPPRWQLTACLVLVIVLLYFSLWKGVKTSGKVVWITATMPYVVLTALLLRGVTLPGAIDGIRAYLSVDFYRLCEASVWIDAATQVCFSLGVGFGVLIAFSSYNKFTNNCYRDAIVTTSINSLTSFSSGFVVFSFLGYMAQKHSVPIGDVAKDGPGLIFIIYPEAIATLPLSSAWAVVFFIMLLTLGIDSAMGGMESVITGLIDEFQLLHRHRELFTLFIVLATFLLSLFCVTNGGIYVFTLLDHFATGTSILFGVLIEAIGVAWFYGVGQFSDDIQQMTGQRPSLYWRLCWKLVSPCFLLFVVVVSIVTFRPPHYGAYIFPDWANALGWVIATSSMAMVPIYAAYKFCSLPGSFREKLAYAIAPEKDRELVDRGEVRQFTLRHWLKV

Structure (SMILES)	Ki [µM]
CNC(=O)CSC(c1ccccc1)c1ccccc1 [Compound 2g, 2-(Benzhydrylthio)-N-methylacetamide]	3.6

target: human DAT wild type (Homo sapiens (Human), UniProt Q01959); assay: [3H]DA uptake inhibition in intact COS7 cells, hDAT WT; assay type: cell-based; conditions: [3H]DA uptake inhibition potency, read-out: hDAT WT Ki [S.E. interval]

Structure (SMILES)	Ki [µM]
CNC(=O)CSC(c1ccccc1)c1ccccc1 [Compound 2g, 2-(Benzhydrylthio)-N-methylacetamide]	5.5

target: NET (Rattus norvegicus (Rat), UniProt Q9WTR4); assay: Norepinephrine Transporter Binding Assay ([3H]Nisoxetine, rat frontal cortex membranes); conditions: not given
Description: Binding affinities of all compounds were evaluated at the DAT, SERT, and NET in rat brain membranes using previously described methods:
Norepinephrine Transporter Binding Assay. Brains from male Sprague-Dawley rats weighing 200-225 g (Taconic Labs, Germantown, N.Y.) were removed, frontal cortex dissected and rapidly frozen. Membranes were prepared by homogenizing tissues in 20 volumes (w/v) of 50 mM Tris containing 120 mM NaCl and 5 mM KCl, (pH 7.4 at 25° C.), using a Brinkman Polytron and centrifuged at 50,000×g for 10 min at 4° C. The resulting pellet was resuspended in buffer, recentrifuged and resuspended in buffer to a concentration of 80 mg/mL. Ligand binding experiments were conducted in assay tubes containing 0.5 mL buffer for 60 min at 0-4° C. […] Nonspecific binding was determined using 1 mM desipramine. Incubations were terminated by rapid filtration through Whatman GF/B filters, presoaked in 0.05% polyethylenimine, using a Brandel R48 filtering manifold (Brandel Instruments Gaithersburg, Md.). The filters were washed twice with 3 mL cold buffer and transferred to scintillation vials. Beckman Ready Value (3.0 mL) was added and the vials were counted using a Beckman 6000 liquid scintillation counter (Beckman Coulter Instruments, Fullerton, Calif.). […] All compounds were tested as racemic mixtures.

Sequence of NET (Q9WTR4 entry or part of it): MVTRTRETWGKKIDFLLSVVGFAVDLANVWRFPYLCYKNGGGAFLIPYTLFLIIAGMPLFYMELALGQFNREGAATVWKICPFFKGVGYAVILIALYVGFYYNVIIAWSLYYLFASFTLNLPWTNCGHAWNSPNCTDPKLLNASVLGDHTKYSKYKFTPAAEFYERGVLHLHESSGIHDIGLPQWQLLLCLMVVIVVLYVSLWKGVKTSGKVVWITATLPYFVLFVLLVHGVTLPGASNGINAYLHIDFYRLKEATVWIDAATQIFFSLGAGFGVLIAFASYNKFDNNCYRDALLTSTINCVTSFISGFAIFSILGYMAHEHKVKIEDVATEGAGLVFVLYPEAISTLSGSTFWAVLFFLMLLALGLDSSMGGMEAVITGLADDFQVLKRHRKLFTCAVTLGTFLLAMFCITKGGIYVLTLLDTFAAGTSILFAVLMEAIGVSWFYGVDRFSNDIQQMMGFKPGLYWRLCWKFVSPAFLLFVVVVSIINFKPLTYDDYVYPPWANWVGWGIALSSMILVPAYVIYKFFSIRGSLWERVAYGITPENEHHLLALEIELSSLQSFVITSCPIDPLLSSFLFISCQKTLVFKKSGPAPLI

Structure (SMILES)	Ki [µM]
Fc1ccc(C(SCCN2CCN(CCCc3ccccc3)CC2)c2ccc(F)cc2)cc1 [Compound 7b, 1-(2-((Bis(4-fluorophenyl)methyl)thio)ethyl)-4-(3-phenylpropyl)piperazine]	1.89 ± 0.116
[O-][S+](CCN1CCN(CCCc2ccccc2)CC1)C(c1ccc(F)cc1)c1ccc(F)cc1 (centres unmarked) [Compound 8b, 1-(2-((Bis(4-fluorophenyl)methyl)sulfinyl)ethyl)-4-(3-phenylpropyl)piperazine]	4.28 ± 0.343
CCCCNCCSC(c1ccccc1)c1ccccc1 [Compound 4e, N-(2-(benzhydrylthio)ethyl)butan-1-amine]	11.5
CCCCNCC[S+]([O-])C(c1ccccc1)c1ccccc1 (centres unmarked) [Compound 5b, N-(2-(benzhydrylsulfinyl)ethyl)butan-1-amine]	> 140
[O-][S+](CCN1CCN(CC(O)Cc2ccccc2)CC1)C(c1ccccc1)c1ccccc1 (racemic) [Compound 10g, 1-(4-(2-(Benzhydrylsulfinyl)ethyl)piperazin-1-yl)-3-phenylpropan-2-ol]	25.3 ± 2.04
NC(=O)CSC(c1cccc(Cl)c1)c1cccc(Cl)c1 [Compound 2e, 2-((Bis(3-chlorophenyl)methyl)thio)acetamide]	34
CCCCNC(=O)CSC(c1ccccc1)c1ccccc1 [Compound 2r, 2-(Benzhydrylthio)-N-butylacetamide]	> 0.1
OC(Cc1ccccc1)CN1CCN(CCSC(c2ccc(F)cc2)c2ccc(F)cc2)CC1 (racemic) [Compound 9j, 1-(4-(2-((Bis(4-fluorophenyl)methyl)thio)ethyl)piperazin-1-yl)-3-phenylpropan-2-ol]	1.95 ± 0.227
O=C(CSC(c1ccc(F)cc1)c1ccc(F)cc1)NCC1CC1 [Compound 2p, 2-((Bis(4-fluorophenyl)methyl)thio)-N-(cyclopropylmethyl)acetamide]	57.6
Cc1ccc(C(c2ccc(C)cc2)[S+]([O-])CC(N)=O)cc1 (centres unmarked) [Compound 3a, 2-((Di-p-tolylmethyl)sulfinyl)acetamide]	> 100
NC(=O)C[S+]([O-])C(c1cccc(Cl)c1)c1cccc(Cl)c1 (centres unmarked) [Compound 3d, 2-((Bis(3-chlorophenyl)methyl)sulfinyl)acetamide]	> 100
O=C(CSC(c1ccc(Br)cc1)c1ccc(Br)cc1)NCC1CC1 [Compound 2q, 2-((Bis(4-bromophenyl)methyl)thio)-N-(cyclopropylmethyl)acetamide]	> 100
O=C(C[S+]([O-])C(c1ccc(Br)cc1)c1ccc(Br)cc1)NCCCc1ccccc1 (centres unmarked) [Compound 3g, 2-(Bis(4-bromophenyl)methylsulfinyl)-N-(3-phenylpropyl)acetamide]	> 100
CC(O)CN1CCN(CCSC(c2ccccc2)c2ccccc2)CC1 (racemic) [Compound 9a, 1-(4-(2-(Benzhydrylthio)ethyl)piperazin-1-yl)propan-2-ol]	44.5 ± 2.4
CNC(=O)CSC(c1ccccc1)c1ccccc1 [Compound 2g, 2-(Benzhydrylthio)-N-methylacetamide]	27.3
CCCNC(=O)CSC(c1ccc(F)cc1)c1ccc(F)cc1 [Compound 2l, 2-((Bis(4-fluorophenyl)methyl)thio)-N-propylacetamide]	61.7
[O-][S+](CCNCCCc1ccccc1)C(c1ccc(Cl)cc1)c1ccc(Cl)cc1 (centres unmarked) [Compound 5d, N-(2-((bis(4-chlorophenyl)methyl)sulfinyl)ethyl)-3-phenylpropan-1-amine]	5.8

Structure (SMILES)	Ki [µM]
CC(O)CN1CCN(CC[S+]([O-])C(c2ccc(F)cc2)c2ccc(F)cc2)CC1 (racemic) [Compound 10d, 1-(4-(2-((Bis(4-fluorophenyl)methyl)sulfinyl)ethyl)piperazin-1-yl)propan-2-ol]	> 100
NC(=O)CSC(c1ccccc1)c1ccccc1 [Compound 2a, 2-(Benzhydrylthio)acetamide]	> 100
CCCNC(=O)CSC(c1ccccc1)c1ccccc1 [Compound 2k, 2-(Benzhydrylthio)-N-propylacetamide]	55.9
OC(Cc1ccccc1)CN1CCN(CCSC(c2ccccc2)c2ccccc2)CC1 (racemic) [Compound 9g, 1-(4-(2-(Benzhydrylthio)ethyl)piperazin-1-yl)-3-phenylpropan-2-ol]	1.43 ± 0.118
NC(=O)C[S+]([O-])C(c1cccc(F)c1)c1cccc(F)c1 (centres unmarked) [Compound 3c, 2-((Bis(3-fluorophenyl)methyl)sulfinyl)acetamide]	> 100
C=CCNC(=O)CSC(c1ccccc1)c1ccccc1 [Compound 2j, N-Allyl-2-(benzhydrylthio)acetamide]	> 230
NC(=O)C[S+]([O-])C(c1ccccc1)c1cccc(Br)c1 (centres unmarked) [Compound 3e, 2-(((3-Bromophenyl)(phenyl)methyl)sulfinyl)acetamide]	> 100
CNC(=O)C[S+]([O-])C(c1ccccc1)c1ccccc1 (centres unmarked) [Compound 3f, 2-(Benzhydrylsulfinyl)-N-methylacetamide]	> 100
CC(O)CN1CCN(CC[S+]([O-])C(c2ccccc2)c2ccccc2)CC1 (racemic) [Compound 10a, 1-(4-(2-(Benzhydrylsulfinyl)ethyl)piperazin-1-yl)propan-2-ol]	> 100
O=C(CSC(c1ccc(Br)cc1)c1ccc(Br)cc1)NCCCCc1ccccc1 [Compound 2z, 2-((Bis(4-bromophenyl)methyl)thio)-N-(4-phenylbutyl)acetamide]	> 100
O=C(CSC(c1ccc(Br)cc1)c1ccc(Br)cc1)NCCCc1ccccc1 [Compound 2x, 2-((Bis(4-bromophenyl)methyl)thio)-N-(3-phenylpropyl)acetamide]	36.3
CCCNC(=O)CSC(c1ccc(Br)cc1)c1ccc(Br)cc1 [Compound 2n, 2-((Bis(4-bromophenyl)methyl)thio)-N-propylacetamide]	10.6
O=C(CSC(c1ccccc1)c1ccccc1)NCC1CC1 [Compound 2o, 2-(Benzhydrylthio)-N-(cyclopropylmethyl)acetamide]	> 100
[O-][S+](CCNCCCc1ccccc1)C(c1ccc(F)cc1)c1ccc(F)cc1 (centres unmarked) [Compound 5c, N-(2-((bis(4-fluorophenyl)methyl)sulfinyl)ethyl)-3-phenylpropan-1-amine]	3.28
O=C(CSC(c1ccc(F)cc1)c1ccc(F)cc1)NCCCc1ccccc1 [Compound 2v, 2-((Bis(4-fluorophenyl)methyl)thio)-N-(3-phenylpropyl)acetamide]	> 100
[O-][S+](CCN1CCN(CCCc2ccccc2)CC1)C(c1ccccc1)c1ccccc1 (centres unmarked) [Compound 8a, 1-(2-(Benzhydrylsulfinyl)ethyl)-4-(3-phenylpropyl)piperazine]	5.54 ± 0.808
c1ccc(CCCNCCSC(c2ccccc2)c2ccccc2)cc1 [Compound 4f, N-(2-(benzhydrylthio)ethyl)-3-phenylpropan-1-amine]	3.91

same assay, conditions: Table 1, thioacetamide and sulfinylacetamide analogs; rat brain membranes; racemic mixtures

Structure (SMILES)	NET Ki (nM) ± S.E.M.
O=C(CSC(c1ccc(Br)cc1)c1ccc(Br)cc1)NCCCCc1ccccc1 [Compound 2z, 2-((Bis(4-bromophenyl)methyl)thio)-N-(4-phenylbutyl)acetamide]	no displacement

same assay, conditions: Table 5, piperazinyl derivatives; rat brain membranes; read-out: NET Ki ± SEM

Structure (SMILES)	Ki [µM]
c1ccc(CCCN2CCN(CCSC(c3ccccc3)c3ccccc3)CC2)cc1 [Compound 7a, 1-(2-(Benzhydrylthio)ethyl)-4-(3-phenylpropyl)piperazine]	0.988 ± 0.0228
